Assay [1] has as its system mouse dextran sodium sulfate-induced chronic inflammatory bowel disease model. Conditions: once-daily doses of 3 and 10 mg/kg; efficacy similar to sulfasalazine; cited from earlier work.
A further assay has as its system neutrophils. In words: Neutrophil migration assay (embelin as chemotactic agent, ATPlite readout). Type of assay: cell-based. Conditions: for IC50: Neutrophil, human neutrophils, embelin as chemotactic agent, read-out: Human Neutrophil migration inhibition IC50; for Human Neutrophil migration inhibition - fold potency to Control Compound: normalized to GPR84 antagonist Control Compound (average IC50 131 nM). The gist of the method: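 Isolated neutrophils (8.9×10^6 cells/ml in DMEM + 10 mM HEPES) preincubated with compound 30 min at 37 °C, then allowed to migrate 60 min at 37 °C through 5 μm-pore transwells toward embelin. Migrated cells quantified by ATPlite luminescence; results normalized for donor variation.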
(ATP-based viability assays read luminescence as a measure of living cells.)

In another assay the target is T1, human GPR84 receptor (Homo sapiens, UniProt Q9NQS5).
T1 construct: host or cells: HEK293, transient transfection
T1 sequence (Q9NQS5 whole entry): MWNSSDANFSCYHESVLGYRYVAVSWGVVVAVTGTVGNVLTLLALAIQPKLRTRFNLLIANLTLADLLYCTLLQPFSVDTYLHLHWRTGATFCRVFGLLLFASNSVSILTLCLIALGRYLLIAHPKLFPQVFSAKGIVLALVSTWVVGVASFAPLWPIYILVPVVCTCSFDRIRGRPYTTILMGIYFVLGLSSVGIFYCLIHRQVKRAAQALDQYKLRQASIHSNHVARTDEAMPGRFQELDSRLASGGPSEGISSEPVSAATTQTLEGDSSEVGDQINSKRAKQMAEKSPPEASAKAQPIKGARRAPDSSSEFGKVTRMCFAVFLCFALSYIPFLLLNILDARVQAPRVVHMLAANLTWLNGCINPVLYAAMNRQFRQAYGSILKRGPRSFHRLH
Kind of assay: Gαi biosensor BRET assay in HEK293 cells (antagonism of ZQ-16). Type of assay: cell-based. Conditions: for inhibition at 10 µM: HEK293, single concentration 10 μM (designated F); for IC50: HEK293 cells, antagonism of 200 nmol/L ZQ-16; for inhibition at 2 µM: HEK293, single concentration 2 μM (designated A); for inhibition at 1 µM: HEK293, single concentration 1 μM (designated A°). Summed up:
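Antagonist mode: test compound 5 min at 37° C, followed by ZQ-16 agonist (200 nmol/L, 5 min, room temperature), in HEK293 cells transfected with GPR84 plus Rluc8-tagged Gαi2, GFP10-Gγ2 and Gβ1. Readout as GFP10/Rluc8 emission ratio after 5 μmol/L coelenterazine 400A, net of Rluc8-only and vehicle signal.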

Results on 18 compounds are retold here after US12617777B2, “GPR84 antagonists and uses thereof” (Liminal BioSciences Limited, priority 2021, dated 2026).

As a reminder, the inhibition is the change of the read-out against control, counted positive when it falls. A higher inhibition goes with a response far below the control.

For `O=c1nc(OC[C@@H]2COCCO2)cc2n1CCc1cc(C#CC3CC3)ccc1-2` [GLPG1205], in assay [1], the “disease activity index score” value is recorded as “reduced” and the neutrophil infiltration result was “reduced”.

Take `Cc1cc(C#CC2CC2)ccc1-c1cn(CC2CCC(C)(C)CO2)nn1` (stereo not drawn) [Compound I-455]: in the assay on neutrophils, the IC50 is no more than 300 nM and the “Human Neutrophil migration inhibition - fold potency to Control Compound” value was “B (IC50 of >0.5-≤1.0-fold relative to Control Compound)”. At human GPR84 receptor, this compound had an inhibition at 10 µM greater than 75% and an IC50 of 1000 to 3000 nM.

Take `Cc1cc(N2CC(C)(CNc3ccccn3)C2)ccc1-c1cn(CC2CCCCO2)nn1` (stereo not drawn) [Compound I-464]: in the assay on neutrophils, the IC50 is no more than 300 nM and the “Human Neutrophil migration inhibition - fold potency to Control Compound” value was “C (IC50≤0.5-fold relative to Control Compound)”. On human GPR84 receptor, this compound had an inhibition at 2 µM greater than 75% and an IC50 of 300 to 1000 nM.

Take `COC(c1cn(CC2CCCCO2)nn1)c1cc(C#CC2CC2)ccc1C` (stereo not drawn) [Compound I-417]: in the assay on neutrophils, the IC50 was no more than 300 nM and the “Human Neutrophil migration inhibition - fold potency to Control Compound” value was “A (IC50 of >1.0-fold relative to Control Compound)”. At human GPR84 receptor, this compound came in with an inhibition at 2 µM greater than 75% and an IC50 of 300 to 1000 nM.

Consider `Cc1cc(C#CCNC(=O)OC(C)(C)C)ccc1-c1cn(CC2CCCCO2)nn1` (stereo not drawn) [Compound I-177], for which, in the assay on neutrophils, the IC50 was no more than 300 nM and the “Human Neutrophil migration inhibition - fold potency to Control Compound” value is given as “A (IC50 of >1.0-fold relative to Control Compound)”. On human GPR84 receptor, this compound showed an inhibition at 10 µM of 50 to 75% and an IC50 of 1000 to 3000 nM.

`Cc1cc(C#CCN2CCC(F)(F)CC2)ccc1-c1cn(CC2CCCCO2)nn1` (stereo not drawn) [Compound I-118]: in the assay with neutrophils, the IC50 is no more than 300 nM and the “Human Neutrophil migration inhibition - fold potency to Control Compound” value is listed as “C (IC50≤0.5-fold relative to Control Compound)”. On human GPR84 receptor, the inhibition at 10 µM is greater than 75% and the IC50 is greater than 3000 nM.

As for `CCc1cc(C#CC2CC2)ccc1-c1cn(CC2CCCCO2)nn1` (stereo not drawn) [Compound I-77], in the assay on neutrophils, the IC50 is no more than 300 nM and the “Human Neutrophil migration inhibition - fold potency to Control Compound” value is listed as “A (IC50 of >1.0-fold relative to Control Compound)”. Besides, at human GPR84 receptor (HEK293, single concentration 5 μM (designated D)), the inhibition at 5 µM is greater than 75%. The compound further returned an IC50 against human GPR84 receptor of 300 to 1000 nM.

Regarding `Cc1cc(C#CCN(C)CC2(C(F)(F)F)CC2)ccc1-c1cn(CC2CCCCO2)nn1` (stereo not drawn) [Compound I-138], in the assay on neutrophils, the IC50 was 1000 to 3000 nM and the “Human Neutrophil migration inhibition - fold potency to Control Compound” value is listed as “C (IC50≤0.5-fold relative to Control Compound)”. On human GPR84 receptor, this compound displayed an inhibition at 10 µM of 50 to 75% and an IC50 of 1000 to 3000 nM.

Regarding `Cc1cc(C#CC2CC2)ccc1-c1cn(CC2CCCCO2)nn1` (stereo not drawn) [Compound I-34], in the assay on neutrophils, the IC50 lay in the range of 1000 to 3000 nM and the “Human Neutrophil migration inhibition - fold potency to Control Compound” value was “C (IC50≤0.5-fold relative to Control Compound)”. On human GPR84 receptor (HEK293, single concentration 6.25 μM (designated E)), this compound returned an inhibition at 6.25 µM of 50 to 75%. This compound registered an IC50 against human GPR84 receptor greater than 3000 nM.

As for `CN(C)c1cc(N2CC(C)(CO)C2)ccc1-c1cn(C[C@H]2CC(C)(C)CO2)nn1` (stereo in doubt) [Compound I-588], in the assay with neutrophils, the IC50 was no more than 300 nM and the “Human Neutrophil migration inhibition - fold potency to Control Compound” value was “A (IC50 of >1.0-fold relative to Control Compound)”. At human GPR84 receptor, this compound yielded an inhibition at 1 µM greater than 75% and an IC50 of no more than 300 nM.

As to `Cc1cc(N2CCN(Cc3ccccn3)CC2)ccc1-c1cn(C[C@H]2CCC(F)(F)CO2)nn1` (stereo in doubt) [Compound I-635], in the assay on neutrophils, the IC50 fell in the range of 300 to 1000 nM and the “Human Neutrophil migration inhibition - fold potency to Control Compound” value was “C (IC50≤0.5-fold relative to Control Compound)”. On human GPR84 receptor, this compound gave an inhibition at 10 µM of 50 to 75% and an IC50 of no more than 300 nM.

Regarding `Cc1cc(C#CCn2cc(-c3ccc(N(C)C)cc3)nn2)ccc1-c1cn(CC2CCCCO2)nn1` (stereo not drawn) [Compound I-456], in the assay with neutrophils, the IC50 is no more than 300 nM and the “Human Neutrophil migration inhibition - fold potency to Control Compound” value is given as “A (IC50 of >1.0-fold relative to Control Compound)”. On human GPR84 receptor, this compound registered an inhibition at 2 µM greater than 75% and an IC50 of no more than 300 nM.

Consider `CCc1cc(N2CC(C)(C)C2)ccc1-c1cn(CC2OCC(C)(C)CO2)nn1` [Compound I-618], for which, in the assay with neutrophils, the IC50 was no more than 300 nM and the “Human Neutrophil migration inhibition - fold potency to Control Compound” value was “A (IC50 of >1.0-fold relative to Control Compound)”. At human GPR84 receptor, this compound gave an inhibition at 10 µM greater than 75% and an IC50 of no more than 300 nM.

For the compound `Cc1cc(C#CC(C)(C)C)ccc1-c1cn(CC2CCCCO2)nn1` (stereo not drawn) [Compound I-67], in the assay on neutrophils, the IC50 fell in the range of 300 to 1000 nM and the “Human Neutrophil migration inhibition - fold potency to Control Compound” value was “B (IC50 of >0.5-≤1.0-fold relative to Control Compound)”. Moreover, on human GPR84 receptor, the IC50 lay within 1000 to 3000 nM.

Turning to `Cc1cc(C#CCN2CC(C)(C)C2)cnc1-c1cn(CC2OCC(C)(C)CO2)nn1` [Compound I-596], in the assay with neutrophils, the IC50 was no more than 300 nM and the “Human Neutrophil migration inhibition - fold potency to Control Compound” value is listed as “A (IC50 of >1.0-fold relative to Control Compound)”. Also, at human GPR84 receptor, the inhibition at 10 µM was greater than 75% and the IC50 was in the range of 300 to 1000 nM.

`Cc1cc(N2CCN(Cc3ccccn3)CC2)ccc1-c1cn(CC2CC(C)(C)CO2)nn1` (stereo not drawn) [Compound I-530]: in the assay with neutrophils, the IC50 is no more than 300 nM and the “Human Neutrophil migration inhibition - fold potency to Control Compound” value is listed as “A (IC50 of >1.0-fold relative to Control Compound)”. Besides, at human GPR84 receptor, the inhibition at 10 µM is greater than 75% and the IC50 was no more than 300 nM.

For the compound `CN(C)c1cc(N2CC(C)(CO)C2)ccc1-c1cn(C[C@@H]2CC(C)(C)CO2)nn1` (stereo in doubt) [Compound I-589], in the assay with neutrophils, the IC50 is no more than 300 nM and the “Human Neutrophil migration inhibition - fold potency to Control Compound” value is “A (IC50 of >1.0-fold relative to Control Compound)”. At human GPR84 receptor, this compound came in with an inhibition at 1 µM greater than 75% and an IC50 of no more than 300 nM.

Take `Cc1cc(N2CC(C)(OCc3ccccn3)C2)ccc1-c1cn(CC2CCCCO2)nn1` (stereo not drawn) [Compound I-452]: in the assay on neutrophils, the IC50 was no more than 300 nM and the “Human Neutrophil migration inhibition - fold potency to Control Compound” value is “A (IC50 of >1.0-fold relative to Control Compound)”. On human GPR84 receptor, this compound returned an inhibition at 10 µM greater than 75% and an IC50 of 300 to 1000 nM.
